This experiment concerns the target TNFα trimer (Homo sapiens, UniProt P01375). The experiment in a line: TNFα FP Competitive Binding Assay. The procedure, abridged: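 Fluorescence polarization displacement: 20 nM TNFα trimer (60 nM protein) with 1 nM fluorescein-labelled bis-isoquinoline probe in HEPES/NaCl/EDTA/Triton X-100 buffer. 12-point 1:3 compound series, top final 338 μM (3.4% DMSO) or 100 μM (2.0% DMSO); 18-24 h at 37 °C, then 1 h rt before background-subtracted mP read; variable-slope curve fit.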

Where [1] appears, read: fluorescence polarization competition, 20 nM TNFα trimer, 1 nM OregonGreen488 probe, read-out: TNF IC50 (TNFα FP binding assay IC50).
Where [2] appears, read: TNFα FP competitive binding assay, class symbols A/B/C, read-out: TNF IC50.

pIC50: −log10 of the molar value. Where two headings read alike, the source gives them in different places. Bounds are passed on as bounds.

The term pIC50 denotes −log10 of the IC50, conventionally taken in molar units.

TNFα trimer, sequence (P01375 77-233 limits assumed): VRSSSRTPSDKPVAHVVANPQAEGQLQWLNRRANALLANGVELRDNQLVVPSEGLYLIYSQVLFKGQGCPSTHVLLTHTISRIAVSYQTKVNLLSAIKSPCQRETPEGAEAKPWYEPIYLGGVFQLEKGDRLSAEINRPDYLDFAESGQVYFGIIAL

On to `CN1CCC(C2CCN(c3ncc(-c4ccc5nc6n(c5c4)[C@@H](c4ccccc4)COC6)cn3)CC2)CC1` [G.21], for which the pIC50 under setting [1] was 5.00 to 6.00.
On to `CC1(O)CCN(c2ncc(-c3ccc4nc5n(c4c3)[C@@H](c3ccccc3)COC5)cn2)CC1` [G.22], for which, under setting [1], the pIC50 is greater than 6.00.
As for `CC1CN(c2ncc(-c3ccc4nc5n(c4c3)[C@@H](c3ccccc3)COC5)cn2)CC(C)O1` (some centres unmarked) [G.23], under setting [1], the pIC50 was 5.00 to 6.00.
On the same count and under the same terms, to `CS(=O)(=O)N1CCN(c2ncc(-c3ccc4nc5n(c4c3)[C@@H](c3ccccc3)COC5)cn2)CC1` [G.24] belongs greater than 6.00; to `O[C@H]1CN(c2ncc(-c3ccc4nc5n(c4c3)[C@@H](c3ccccc3)COC5)cn2)C[C@@H]1O` [G.25], 4.00 to 5.00; to `O[C@@H]1CN(c2ncc(-c3ccc4nc5n(c4c3)[C@@H](c3ccccc3)COC5)cn2)C[C@H]1O` [G.26], 4.00 to 5.00.
Take `O=C1OCC2CN(c3ncc(-c4ccc5nc6n(c5c4)[C@@H](c4ccccc4)COC6)cn3)CCN12` (some centres unmarked) [G.27]: the pIC50 under setting [1] is 5.00 to 6.00.
`c1ccc([C@H]2COCc3nc4ccc(-c5cnc(N6CCn7cnnc7C6)nc5)cc4n32)cc1` [G.28]: under setting [1], the pIC50 was greater than 6.00.
Same read-out and setting: next, `CS(=O)(=O)C1CCN(c2ncc(-c3ccc4nc5n(c4c3)[C@@H](c3ccccc3)COC5)cn2)C1` (some centres unmarked) [G.29]: 5.00 to 6.00; `O=C1CN(c2ncc(-c3ccc4nc5n(c4c3)[C@@H](c3ccccc3)COC5)cn2)CCN1` [G.30]: greater than 6.00.
Still for that read-out and setting: to `OCCC1(O)CCN(c2ncc(-c3ccc4nc5n(c4c3)[C@@H](c3ccccc3)COC5)cn2)C1` (some centres unmarked) [G.31] belongs 5.00 to 6.00.
Still for that read-out and setting: next, `c1ccc([C@H]2COCc3nc4ccc(-c5cnc(N6CCCOCC6)nc5)cc4n32)cc1` [G.32]: greater than 6.00.
For the compound `CS(=O)(=O)C1(CO)CCN(c2ncc(-c3ccc4nc5n(c4c3)[C@@H](c3ccccc3)COC5)cn2)CC1` [G.33], under setting [1], the pIC50 is 5.00 to 6.00.
On to `OC1CC2(CCN(c3ncc(-c4ccc5nc6n(c5c4)[C@@H](c4ccccc4)COC6)cn3)C2)C1` (some centres unmarked) [G.34], for which, under setting [1], the pIC50 was greater than 6.00.
`OCC1CN(c2ncc(-c3ccc4nc5n(c4c3)[C@@H](c3ccccc3)COC5)cn2)CCO1` (some centres unmarked) [G.35]: the pIC50 under setting [1] was greater than 6.00.
Still for that read-out and setting: to `O=C(O)C1CN(c2ncc(-c3ccc4nc5n(c4c3)C(c3ccccc3)CCC5)cn2)C1` (centres unmarked) [H.1] belongs 4.00 to 5.00.
Same read-out and setting: next, `O=C(O)C1CCN(c2ncc(-c3ccc4nc5n(c4c3)C(c3ccccc3)CCC5)cn2)CC1` (centres unmarked) [H.2]: 5.00 to 6.00; `O=C1CN(c2ncc(-c3ccc4nc5n(c4c3)C(c3ccccc3)CCC5)cn2)CCN1` (centres unmarked) [H.3]: 5.00 to 6.00.
Regarding `OC1(c2cccc(Cl)c2)CCCc2nc3ccc(-c4cnc(N5CCOCC5)nc4)cn3c21` (centres unmarked) [I.1, 9-(3-Chlorophenyl)-2-(2-morpholinopyrimidin-5-yl)-6,7,8,9-tetrahydrobenzo[4,5]imidazo[1,2-a]pyridin-9-ol], the pIC50 under setting [1] was 5.00 to 6.00.
On the same count and under the same terms, to `OC1(c2ccccc2)CCCc2nc3ccc(-c4cnc(N5CCOCC5)nc4)cn3c21` (centres unmarked) [I.2] belongs 5.00 to 6.00; to `Cc1cccc(C2(O)CCCc3nc4ccc(-c5cnc(N6CCOCC6)nc5)cn4c32)c1` (centres unmarked) [I.3], 5.00 to 6.00; to `OC1(c2cccc(F)c2)CCCc2nc3ccc(-c4cnc(N5CCOCC5)nc4)cn3c21` (centres unmarked) [I.4], 5.00 to 6.00.
Take `Cc1c(F)cccc1C1(O)CCCc2nc3ccc(-c4cnc(N5CCOCC5)nc4)cn3c21` (centres unmarked) [I.5]: under setting [1], the pIC50 is 5.00 to 6.00.
Consider `OC1(c2ccc(F)cc2)CCCc2nc3ccc(-c4cnc(N5CCOCC5)nc4)cn3c21` (centres unmarked) [I.6], for which, under setting [1], the pIC50 was 5.00 to 6.00.
As to `OC1(c2cc(F)cc(Cl)c2)CCCc2nc3ccc(-c4cnc(N5CCOCC5)nc4)cn3c21` (centres unmarked) [I.7], the pIC50 under setting [1] was 5.00 to 6.00.
Consider `Cc1ccc(C2(O)CCCc3nc4ccc(-c5cnc(N6CCOCC6)nc5)cn4c32)cc1` (centres unmarked) [I.8], for which the pIC50 under setting [1] was 5.00 to 6.00.
Still for that read-out and setting: next, `OC1(c2cccc(F)c2)CCCCc2nc3ccc(-c4cnc(N5CCOCC5)nc4)cn3c21` (centres unmarked) [J.1]: greater than 6.00.
On to `OC1(c2cccc(Cl)c2)CCCCc2nc3ccc(-c4cnc(N5CCOCC5)nc4)cn3c21` (centres unmarked) [J.2], for which the pIC50 under setting [1] is 5.00 to 6.00.
As for `Cc1cccc(C2(O)CCCCc3nc4ccc(-c5cnc(N6CCOCC6)nc5)cn4c32)c1` (centres unmarked) [J.3], the pIC50 under setting [1] is 5.00 to 6.00.
On the same count and under the same terms, to `OC1(c2ccc(F)cc2)CCCCc2nc3ccc(-c4cnc(N5CCOCC5)nc4)cn3c21` (centres unmarked) [J.4] belongs 5.00 to 6.00; to `OC1(c2cc(F)cc(Cl)c2)CCCCc2nc3ccc(-c4cnc(N5CCOCC5)nc4)cn3c21` (centres unmarked) [J.5], 5.00 to 6.00.
Still for that read-out and setting: next, `COc1ccc(C2(O)CCCCc3nc4ccc(-c5cnc(N6CCOCC6)nc5)cn4c32)cc1` (centres unmarked) [J.6]: 5.00 to 6.00; `Cc1ccc(C2(O)CCCCc3nc4ccc(-c5cnc(N6CCOCC6)nc5)cn4c32)cc1` (centres unmarked) [J.7]: 5.00 to 6.00; `OC1(c2ccc(Cl)cc2)CCCCc2nc3ccc(-c4cnc(N5CCOCC5)nc4)cn3c21` (centres unmarked) [J.8]: 5.00 to 6.00.
The same measure, in the same setting: to `COc1cc(OC)cc(C2(O)CCCCc3nc4ccc(-c5cnc(N6CCOCC6)nc5)cn4c32)c1` (centres unmarked) [J.9] belongs 4.00 to 5.00; to `COc1cccc(C2(O)CCCCc3nc4ccc(-c5cnc(N6CCOCC6)nc5)cn4c32)c1` (centres unmarked) [J.10], 4.00 to 5.00.
With `Clc1cccc(C2CCCc3nc4ccc(-c5cnc(N6CCOCC6)nc5)cn4c32)c1` (centres unmarked) [K.1], the pIC50 under setting [1] is greater than 6.00.
Consider `CC(C)(O)c1ncc(-c2ccc3nc4n(c3n2)C(c2ccccc2)CC4)cn1` (centres unmarked) [L.1], for which, under setting [1], the negative logarithm of the IC50 (pIC50) is greater than 6.00.
Still for that read-out and setting: next, `O=C1CN(c2ncc(-c3ccc4nc5n(c4n3)C(c3ccccc3)CC5)cn2)CCN1` (centres unmarked) [L.2]: greater than 6.00; `OC1CCN(c2ncc(-c3ccc4nc5n(c4n3)C(c3ccccc3)CC5)cn2)CC1` (centres unmarked) [L.3, 1-(5-(8-phenyl-7,8-dihydro-6H-pyrrolo[2′,1′:2,3]imidazo[4,5-b]pyridin-2-yl)pyrimidin-2-yl)piperidin-4-ol]: greater than 6.00; `O=C1NCC2CN(c3ncc(-c4ccc5nc6n(c5n4)C(c4ccccc4)CC6)cn3)CCN12` (centres unmarked) [L.4]: greater than 6.00.
The same measure, in the same setting: next, `Fc1cccc(C2CCc3nc4ccc(-c5cnc(N6CCOCC6)nc5)nc4n32)c1` (centres unmarked) [M.1]: greater than 6.00.
The same measure, in the same setting: next, `CC(C)(O)c1ncc(-c2ccc3nc4n(c3n2)C(c2cccc(F)c2)CC4)cn1` (centres unmarked) [M.2]: greater than 6.00.
Regarding `O=C1CN(c2ncc(-c3ccc4nc5n(c4n3)C(c3cccc(F)c3)CC5)cn2)CCN1` (centres unmarked) [M.3], the pIC50 under setting [1] is greater than 6.00.
As to `OC1CCN(c2ncc(-c3ccc4nc5n(c4n3)C(c3cccc(F)c3)CC5)cn2)CC1` (centres unmarked) [M.4, 1-(5-(8-(3-fluorophenyl)-7,8-dihydro-6H-pyrrolo[2′,1′:2,3]imidazo[4,5-b]pyridin-2-yl)pyrimidin-2-yl)piperidin-4-ol], under setting [1], the pIC50 is greater than 6.00.
The same measure, in the same setting: to `O=C1NCC2CN(c3ncc(-c4ccc5nc6n(c5n4)C(c4cccc(F)c4)CC6)cn3)CCN12` (centres unmarked) [M.5] belongs greater than 6.00.
For `Cc1ccc(C)c(C2CCc3nc4ccc(-c5cnc(N6CCOCC6)nc5)nc4n32)c1` (centres unmarked) [N.1], under setting [1], the pIC50 is greater than 6.00.
The same measure, in the same setting: to `Cc1ccc(C)c(C2CCc3nc4ccc(-c5cnc(N6CCNC(=O)C6)nc5)nc4n32)c1` (centres unmarked) [N.2] belongs greater than 6.00; to `Cc1ccc(C)c(C2CCc3nc4ccc(-c5cnc(N6CCC(O)CC6)nc5)nc4n32)c1` (centres unmarked) [N.3], greater than 6.00; to `Cc1ccc(C)c(C2CCc3nc4ccc(-c5cnc(N6CCN7C(=O)NCC7C6)nc5)nc4n32)c1` (centres unmarked) [N.4], greater than 6.00.
Consider `c1ccc(C2CCCc3nc4ccc(-c5cnc(N6CCOCC6)nc5)nc4n32)cc1` (centres unmarked) [O.1], for which the negative logarithm of the IC50 (pIC50) under setting [1] was greater than 6.00.
`CC(C)(O)c1ncc(-c2ccc3nc4n(c3n2)C(c2ccccc2)CCC4)cn1` (centres unmarked) [O.2]: the pIC50 under setting [1] was greater than 6.00.
Consider `O=C1CN(c2ncc(-c3ccc4nc5n(c4n3)C(c3ccccc3)CCC5)cn2)CCN1` (centres unmarked) [O.3], for which the negative logarithm of the IC50 (pIC50) under setting [1] is greater than 6.00.
On the same count and under the same terms, next, `OC1CCN(c2ncc(-c3ccc4nc5n(c4n3)C(c3ccccc3)CCC5)cn2)CC1` (centres unmarked) [O.4]: greater than 6.00; `c1ccc(C2CCc3nc4cnc(-c5cnc(N6CCOCC6)nc5)cc4n32)cc1` (centres unmarked) [P.1]: 5.00 to 6.00.
For `CC(C)(O)c1ncc(-c2cc3c(cn2)nc2n3C(c3ccccc3)CC2)cn1` (centres unmarked) [P.2], the pIC50 under setting [1] is 5.00 to 6.00.
Still for that read-out and setting: next, `O=C1CN(c2ncc(-c3cc4c(cn3)nc3n4C(c4ccccc4)CC3)cn2)CCN1` (centres unmarked) [P.3]: 4.00 to 5.00; `O=C1CN(c2ncc(-c3cnc4nc5n(c4c3)C(c3ccccc3)CCC5)cn2)CCN1` (centres unmarked) [Q.1]: 4.00 to 5.00; `COc1ccccc1C1CCCc2nc3ccc(-c4ccc(OCC(=O)O)nc4)cn3c21` (centres unmarked) [R.1]: greater than 6.00.
Consider `COc1ccccc1C1CCCCc2nc3ccc(-c4cnc(N5CCOCC5)nc4)cn3c21` (centres unmarked) [S.1], for which the pIC50 under setting [2] was greater than 6.00.
The same measure, in the same setting: next, `CCOC(=O)CNc1ncc(-c2ccc3nc4c(n3c2)C(c2ccccc2OC)CCCC4)cn1` (centres unmarked) [S.2]: 5.00 to 6.00; `COc1ccccc1C1CCCCc2nc3ccc(-c4cnc(NCC(=O)O)nc4)cn3c21` (centres unmarked) [S.3]: 5.00 to 6.00.
Same read-out and setting: to `COc1ccccc1C1CCCCc2nc3ccc(-c4cnc(C(C)(C)O)nc4)cn3c21` (centres unmarked) [S.4] belongs greater than 6.00; to `COc1ncc(-c2ccc3nc4n(c3c2)C(c2ccccc2)COC4)cc1F` (centres unmarked) [T.1], 5.00 to 6.00; to `CS(=O)(=O)c1ccc(-c2ccc3nc4n(c3c2)C(c2ccccc2)COC4)cn1` (centres unmarked) [T.2], 5.00 to 6.00.
Take `c1ccc(C2COCc3nc4ccc(-c5cnc6nonc6c5)cc4n32)cc1` (centres unmarked) [T.3]: under setting [2], the pIC50 was 5.00 to 6.00.
On the same count and under the same terms, next, `FC(F)(F)COc1ccc(-c2ccc3nc4n(c3c2)C(c2ccccc2)COC4)cn1` (centres unmarked) [T.4]: 5.00 to 6.00; `CC(C)Oc1ccc(-c2ccc3nc4n(c3c2)C(c2ccccc2)COC4)cn1` (centres unmarked) [T.5]: 5.00 to 6.00.
The same measure, in the same setting: to `CC(=O)Nc1ccc(-c2ccc3nc4n(c3c2)C(c2ccccc2)COC4)cn1` (centres unmarked) [T.6] belongs 4.00 to 5.00.
As for `COc1ncc(-c2ccc3nc4n(c3c2)C(c2ccccc2)COC4)cc1C` (centres unmarked) [T.7], under setting [2], the pIC50 was 5.00 to 6.00.
`Cc1nccn1-c1cnc(-c2ccc3nc4n(c3c2)C(c2ccccc2)COC4)cn1` (centres unmarked) [T.8]: the pIC50 under setting [2] is 5.00 to 6.00.

The values are drawn from patent US20180179198A1, “TRICYCLIC MODULATORS OF TNF SIGNALING” (AbbVie Inc., priority 2015, published 2018).
